In brackets after ≈: the same amount, converted by molar mass. Where a name gives a salt, the structure may show the parent alone. Read-outs that look alike come from different tables or passages of the source.
Legend:
Assay in all cases: MIC, microdilution method
Assay type in all cases: cell-based
[1] = tested on: Escherichia coli ATCC 25922 = CCM 3954
Method: (§1) Disposable microtiter plates are used for testing. Samples are dissolved in infusion medium from brain and heart (BHI, HiMedia Laboraties Pvt. Ltd., Czech Republic) and Mueller-Hinton broth (HiMedia Laboraties, see above) to a final concentration ranging from 200 μg/ml to 1.5625 μg/ml. Plates are inoculated with a standard amount of test bacteria—the density of the inoculum in the well corresponds to 10^5-6 CFU/ml (colony forming units/ml, i.e. the number of viable bacterial cells/ml). MIC values are read after 24/48 hours of incubation at 37° C. as the minimum inhibitory concentration of the test substance at which bacterial growth is inhibited. The minimum bactericidal concentration (MBC) is characterized as the minimum concentration of the sample required to achieve irreversible inhibition, i.e. to kill the bacteria after a defined incubation period. MBC is determined by the inoculation method. Using an applicator, 10 μl from the well of a microtiter plate with a defined concentration of the test substance is taken to inoculate the surface of blood agar (Trios, Czech Republic). MBC is determined as the lowest concentration that inhibits the visible growth of the bacterium used on agar.

[2] = tested on: Staphylococcus aureus ATCC 29213 = CCM 4223
Method: as §1

Enterobacter kobei 3683 = tested on: Enterobacter kobei 3683
Method: as §1

[3] = tested on: Enterococcus faecalis ATCC 29212 = CCM 4224
Method: as §1

[4] = tested on: Enterococcus faecium 419/ANA
Method: as §1

Escherichia coli CE5556 = tested on: Escherichia coli CE5556
Method: as §1

[5] = tested on: Pseudomonas aeruginosa ATCC 27853 = CCM 3955
Method: as §1

Pseudomonas aeruginosa R = tested on: Pseudomonas aeruginosa R
Method: as §1

[6] = tested on: Staphylococcus aureus 4591
Method: as §1

[7] = tested on: Staphylococcus epidermidis CCM 7221
Method: as §1

[8] = tested on: Candida albicans ATCC 90028 = CCM 8161
[9] = Escherichia coli, 24/48 hours at 37° C.
[10] = Staphylococcus epidermidis, CCM7221
[11] = Enterobacter kobei, 3683, 24/48 hours at 37° C., read-out: MIC
[12] = Enterococcus faecalis, 24/48 hours at 37° C., read-out: MIC
[13] = Enterococcus faecium, 419/ANA, 24/48 hours at 37° C., read-out: MIC
[14] = Escherichia coli, 24/48 hours at 37° C., read-out: MIC
[15] = Escherichia coli, CE5556, 24/48 hours at 37° C., read-out: MIC
[16] = Pseudomonas aeruginosa, 24/48 hours at 37° C., read-out: MIC
[17] = Staphylococcus aureus, 4591, 24/48 hours at 37° C., read-out: MIC
[18] = Staphylococcus aureus, 24/48 hours at 37° C., read-out: MIC
[19] = Staphylococcus epidermidis, CCM7221, 24/48 hours at 37° C., read-out: MIC
[20] = Candida albicans, 24/48 hours at 37° C., read-out: MIC

| Molecule | MIC (Enterobacter kobei 3683; Enterobacter kobei, 3683) [µg/mL] | MIC ([3]; Enterococcus faecalis) [µg/mL] | MIC ([4]; Enterococcus faecium, 419/ANA) [µg/mL] | MIC [1, 9] [µg/mL] | MIC (Escherichia coli CE5556; Escherichia coli, CE5556) [µg/mL] | MIC ([5]; Pseudomonas aeruginosa) [µg/mL] | MIC (Pseudomonas aeruginosa R; Pseudomonas aeruginosa) [µg/mL] | MIC ([6]; Staphylococcus aureus, 4591) [µg/mL] | MIC ([2]; Staphylococcus aureus) [µg/mL] | MIC [7, 10] [µg/mL] | MIC ([8]; Candida albicans) [µg/mL] | further results |
| --- | --- | --- | --- | --- | --- | --- | --- | --- | --- | --- | --- | --- |
| CCCCCCCCCCCCCCOP(=O)(CCN(CCCNC(=N)N)CCCNC(=N)N)OC[C@H]1O[C@@H](n2ccc(=O)[nH]c2=O)C(O)C1O (stereo partly drawn) [DR7030, reference compound] | – | – | – | – | – | – | – | – | – | – | – | MIC ([1]; Escherichia coli, 0% BSA, read-out: MIC): 2 µg/mL (≈ 2.68 µM); MIC ([1]; Escherichia coli, 4% BSA, read-out: MIC): > 200 µg/mL; MIC ([2]; Staphylococcus aureus, 0% BSA, read-out: MIC): 2 µg/mL (≈ 2.68 µM); MIC ([2]; Staphylococcus aureus, 4% BSA, read-out: MIC): > 200 µg/mL |
| CCCCCOP(=O)(CCN(CCCN)CCCN)OCCCCCCCCCCCCCCOP(=O)(CCN(CCCN)CCCN)OCCCCC.Cl.Cl.Cl.Cl.Cl.Cl (stereo not drawn) [Example 53, Tetradecane-1,14-diyl dipentyl bis((2-(bis(3-aminopropyl)amino)ethyl)-phosphonate) hexahydrochloride] | 2 | 1 | 2 | 1 | 1 | 2 | 4 | 1 | 0.5 | 0.5 | 2 | – |
| Hexan-1,8-diyl dihexyl bis((2-(bis(3-aminopropyl)amino)ethyl)phosphonate) hexahydrochloride [Example 35] | – | – | – | – | – | – | – | – | – | – | – | MIC (Enterobacter kobei 3683; 24/48 hours at 37° C.): 2 µg/mL; MIC ([3]; 24/48 hours at 37° C.): 1 µg/mL; MIC ([4]; 24/48 hours at 37° C.): 8 µg/mL; MIC ([1]; 24/48 hours at 37° C.): 0.5 µg/mL; MIC (Escherichia coli CE5556; 24/48 hours at 37° C.): 1 µg/mL; MIC ([5]; 24/48 hours at 37° C.): 2 µg/mL; MIC (Pseudomonas aeruginosa R; 24/48 hours at 37° C.): 2 µg/mL; MIC ([6]; 24/48 hours at 37° C.): 1 µg/mL; MIC ([2]; 24/48 hours at 37° C.): 0.5 µg/mL; MIC ([7]; 24/48 hours at 37° C.): 0.5 µg/mL; MIC ([8]; 24/48 hours at 37° C.): 16 µg/mL |
| CCCCCCCCCCOP(=O)(CCN(CCCN)CCCN)OCCCCCCCCCCOP(=O)(CCN(CCCN)CCCN)OCCCCCCCCCC (stereo not drawn) [Example 45, Decan-1,10-diyl didecyl bis((2-(bis(3-aminopropyl)amino)ethyl)-phosphonate) tetrahydrochloride] | > 128 | 32 | 128 | – | > 128 | 32 | 16 | 4 | 4 | 1 | 64 | MIC ([1]; Escherichia coli): > 128 µg/mL |
| CCCCOP(=O)(CCN(CCN)CCN)OCCCCCCCCCCOP(=O)(CCN(CCN)CCN)OCCCC.Cl.Cl.Cl.Cl.Cl.Cl (stereo not drawn) [Example 56, Dibutyl decane-1,10-diyl bis((2-(bis(2-aminoethyl)amino)ethyl)phosphonate) hexahydrochloride] | 16 | 2 | 4 | 4 | 4 | 4 | 8 | 4 | 2 | 4 | 4 | – |
| C=CP(=O)(OCCCCCCCCCCCCOP(=O)(C=C)OCC(C)C)OCC(C)C (stereo not drawn) [Example 34, Diisobutyl dodecane-1,12-diyl bis(vinylphosphonate)] | – | – | – | – | – | – | – | – | – | – | – | MIC (Enterobacter kobei 3683; [11]): > 128 µg/mL; MIC [3, 12]: 128 µg/mL (≈ 259 µM); MIC [4, 13]: > 128 µg/mL; MIC [1, 14]: 32 µg/mL (≈ 64.7 µM); MIC (Escherichia coli CE5556; [15]): 128 µg/mL (≈ 259 µM); MIC [5, 16]: > 128 µg/mL; MIC (Pseudomonas aeruginosa R; [16]): > 128 µg/mL; MIC [6, 17]: 16 µg/mL (≈ 32.4 µM); MIC [2, 18]: 8 µg/mL (≈ 16.2 µM); MIC [7, 19]: 4 µg/mL (≈ 8.09 µM); MIC [8, 20]: 128 µg/mL (≈ 259 µM) |
| CCCCCCOP(=O)(CCN(CCCN)CCCN)OCCCCCCCCCCOP(=O)(CCN(CCCN)CCCN)OCCCCCC.Cl.Cl.Cl.Cl (stereo not drawn) [Example 43, Decane-1,10-diyl dihexyl bis((2-(bis(3-aminopropyl)amino)-ethyl)phosphonate) tetrahydrochloride] | 1 | 0.5 | 1 | 0.5 | 1 | 1 | 1 | 0.5 | 0.5 | 0.5 | 1 | – |
| CCCCCOP(=O)(CCN(CCCN)CCCN)OCCCCCCCCOP(=O)(CCN(CCCN)CCCN)OCCCCC.Cl.Cl.Cl.Cl.Cl.Cl (stereo not drawn) [Example 37, Octane-1,8-diyl dipentyl bis((2-(bis(3-aminopropyl)amino)-ethyl)phosphonate) hexahydrochloride] | > 128 | 16 | > 128 | 2 | 8 | 16 | 64 | 2 | 1 | 0.5 | 32 | MIC ([1]; Escherichia coli, 0% BSA): 2 µg/mL; MIC ([1]; Escherichia coli, 4% BSA): 4 µg/mL; MIC ([2]; 4% BSA): 1 µg/mL; MIC ([2]; 24/48 hours at 37° C.): 1 µg/mL |
| Hexan-1,8-diyl dioctyl bis((2-(bis(3-aminopropyl)amino)ethyl)phosphonate) hexahydrochloride [Example 36] | – | – | – | – | – | – | – | – | – | – | – | MIC (Enterobacter kobei 3683; 24/48 hours at 37° C.): >128 µg/mL; MIC ([3]; 24/48 hours at 37° C.): >128 µg/mL; MIC ([4]; 24/48 hours at 37° C.): >128 µg/mL; MIC ([1]; 24/48 hours at 37° C.): 128 µg/mL; MIC (Escherichia coli CE5556; 24/48 hours at 37° C.): >128 µg/mL; MIC ([5]; 24/48 hours at 37° C.): >128 µg/mL; MIC (Pseudomonas aeruginosa R; 24/48 hours at 37° C.): 128 µg/mL; MIC ([6]; 24/48 hours at 37° C.): 8 µg/mL; MIC ([2]; 24/48 hours at 37° C.): 16 µg/mL; MIC ([7]; 24/48 hours at 37° C.): 4 µg/mL; MIC ([8]; 24/48 hours at 37° C.): 128 µg/mL |
| CCCCOP(=O)(CCN(CCCN)CCCN)OCCCCCCCCCCOP(=O)(CCN(CCCN)CCCN)OCCCC.Cl.Cl.Cl.Cl.Cl.Cl (stereo not drawn) [Example 41, Dibutyl decane-1,10-diyl bis((2-(bis(3-aminopropyl)amino)ethyl)phosphonate) hexahydrochloride] | > 128 | 32 | 128 | 64 | 128 | 16 | 8 | 2 | 2 | 1 | 64 | – |
| CCCCCOP(=O)(CCN(CCCN)CCCN)OCCCCCCCCCCOP(=O)(CCN(CCCN)CCCN)OCCCCC.Cl.Cl.Cl.Cl.Cl.Cl (stereo not drawn) [Example 42, Decane-1,10-diyl dipentyl bis((2-(bis(3-aminopropyl)amino)-ethyl)phosphonate) hexahydrochloride] | 64 | 4 | 32 | 2 | 8 | 4 | 8 | 1 | 0.5 | 0.5 | 16 | – |
| C=CP(=O)(OCCCCCCCCCCOP(=O)(C=C)OCC(C)C)OCC(C)C (stereo not drawn) [Example 39, Decane-1,10-diyl diisobutyl bis(vinylphosphonate)] | – | – | – | – | – | – | – | – | – | – | – | MIC (Enterobacter kobei 3683; [11]): > 128 µg/mL; MIC [3, 12]: 64 µg/mL (≈ 137 µM); MIC [4, 13]: 128 µg/mL (≈ 274 µM); MIC [1, 14]: 128 µg/mL (≈ 274 µM); MIC (Escherichia coli CE5556; [15]): 128 µg/mL (≈ 274 µM); MIC [5, 16]: 128 µg/mL (≈ 274 µM); MIC (Pseudomonas aeruginosa R; [16]): 64 µg/mL (≈ 137 µM); MIC [6, 17]: 16 µg/mL (≈ 34.3 µM); MIC [2, 18]: 32 µg/mL (≈ 68.6 µM); MIC [7, 19]: 8 µg/mL (≈ 17.1 µM); MIC [8, 20]: > 128 µg/mL |
